Reference: US20220372040A1, “METTL3 MODULATORS” (Accent Therapeutics, Inc., priority 2020, published 2022)

Legend:
METTL3/METTL14 = METTL3/METTL14 (Homo sapiens, UniProt Q86U44); experiment: METTL3-14 standard enzyme assay (3H-SAM flashplate scintillation); assay type: biochemical; conditions: METTL3/METTL14 2.5 nM, RNA 100 nM, 3H-SAM 100 nM, 30 min
Method: METTL3-14 Standard Enzyme Assay
Assays were performed in a 25 μl-volume in 384-well V-bottom polypropylene microplates (Greiner Bio-One, cat. No. 781280) at ambient temperature. Optimized 1× assay buffer was 20 mM HEPES pH 7.5, 50 mM KCl, 250 μM MgCl2, 1 mM DTT, 0.01% Tween, 0.01% BSG, 0.004 U/μl RNAseOUT (cat. No. 10777019, ThermoFisher Scientific, Waltham, Mass.). For compound screening METTL3/METTL14 (final concentration, f.c.=2.5 nM) was added using a Multidrop Combi (ThermoFisher Scientific, Waltham, Mass.) and preincubated for 5 min. Reactions were started by adding 3′ biotinylated RNA (UCUGGACUAAA-biotin) (f.c.=100 nM) and 3H-SAM (f.c.=100 nM) substrates. Reactions proceeded for 30 minutes and were quenched with excess non-radioactive SAM (f.c.=15 μM). The reactions were then transferred to streptavidin-coated flashplates and incubated for 2 hours at 25° C. Following two washing cycles with 0.1% Tween-20, the plates were sealed and read on a TopCount (PerkinElmer, Waltham, Mass.) plate-based scintillation counter. For determination of kinetic parameters, reaction times were optimized so that measurements were taken during the initial velocity phase of the reaction.

PRMT5-MEP50 = PRMT5-MEP50 (Homo sapiens, UniProt O14744); experiment: PRMT5 assay (3H-SAM flashplate scintillation); assay type: biochemical; conditions: PRMT5-MEP50 2.5 nM, histone H4 peptide 100 nM, 3H-SAM 250 nM, 60 min
Method: Assays were performed in a 25 μl-volume in 384-well V-bottom polypropylene microplates (Greiner Bio-One, cat. No. 781280) at ambient temperature. Optimized 1× assay buffer was 20 mM Tris-HCl pH 8.0, 1 mM DTT, […]. For compound screening PRMT5-MEP50 (final concentration, f.c.=2.5 nM) was added using a Multidrop Combi (ThermoFisher Scientific, Waltham, Mass.) and preincubated for 5 min. Reactions were started by adding 3′ biotinylated histone H4 peptide acetylated on serine 1 (Ac-[…]-Biotin) (f.c.=100 nM) and 3H-SAM (f.c.=250 nM) substrates. Reactions proceeded for 60 minutes and were quenched with excess non-radioactive SAM (f.c.=15 μM). The reactions were then transferred to streptavidin-coated flashplates and incubated for 2 hours at 25° C. Following two washing cycles with 0.1% Tween-20, the plates were sealed and read on a TopCount (PerkinElmer, Waltham, Mass.) plate-based scintillation counter. For determination of kinetic parameters, reaction times were optimized so that measurements were taken during the initial velocity phase of the reaction.

METTL3/METTL14, sequence (Q86U44 whole entry, species assumed): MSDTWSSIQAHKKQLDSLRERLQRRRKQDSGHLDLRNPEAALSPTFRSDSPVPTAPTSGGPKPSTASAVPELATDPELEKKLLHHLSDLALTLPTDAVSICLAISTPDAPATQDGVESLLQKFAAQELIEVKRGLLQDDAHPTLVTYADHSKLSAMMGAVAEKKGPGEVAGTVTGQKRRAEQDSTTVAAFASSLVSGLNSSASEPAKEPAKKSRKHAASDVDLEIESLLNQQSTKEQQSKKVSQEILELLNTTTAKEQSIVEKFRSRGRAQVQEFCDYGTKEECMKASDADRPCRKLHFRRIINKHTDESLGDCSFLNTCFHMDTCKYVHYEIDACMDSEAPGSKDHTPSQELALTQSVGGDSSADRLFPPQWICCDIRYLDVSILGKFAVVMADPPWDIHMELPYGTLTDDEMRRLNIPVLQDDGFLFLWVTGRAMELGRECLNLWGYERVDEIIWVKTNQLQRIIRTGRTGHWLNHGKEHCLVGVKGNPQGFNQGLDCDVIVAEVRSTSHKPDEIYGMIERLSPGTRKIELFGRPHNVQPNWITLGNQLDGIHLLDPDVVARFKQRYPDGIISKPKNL
METTL3/METTL14, sequence (Q9HCE5 whole entry partner, species assumed): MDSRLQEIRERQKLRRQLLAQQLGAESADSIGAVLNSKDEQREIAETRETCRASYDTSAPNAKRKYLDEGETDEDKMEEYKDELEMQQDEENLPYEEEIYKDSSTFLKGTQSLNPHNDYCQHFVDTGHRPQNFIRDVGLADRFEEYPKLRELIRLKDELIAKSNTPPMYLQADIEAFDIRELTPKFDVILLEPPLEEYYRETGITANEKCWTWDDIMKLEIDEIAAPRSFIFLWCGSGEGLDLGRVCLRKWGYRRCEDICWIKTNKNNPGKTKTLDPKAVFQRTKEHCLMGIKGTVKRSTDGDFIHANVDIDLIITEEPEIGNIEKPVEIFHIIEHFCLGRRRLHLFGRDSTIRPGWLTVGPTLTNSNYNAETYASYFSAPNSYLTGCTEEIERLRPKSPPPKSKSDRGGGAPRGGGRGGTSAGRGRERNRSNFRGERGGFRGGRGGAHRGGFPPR
PRMT5-MEP50, sequence (O14744 whole entry): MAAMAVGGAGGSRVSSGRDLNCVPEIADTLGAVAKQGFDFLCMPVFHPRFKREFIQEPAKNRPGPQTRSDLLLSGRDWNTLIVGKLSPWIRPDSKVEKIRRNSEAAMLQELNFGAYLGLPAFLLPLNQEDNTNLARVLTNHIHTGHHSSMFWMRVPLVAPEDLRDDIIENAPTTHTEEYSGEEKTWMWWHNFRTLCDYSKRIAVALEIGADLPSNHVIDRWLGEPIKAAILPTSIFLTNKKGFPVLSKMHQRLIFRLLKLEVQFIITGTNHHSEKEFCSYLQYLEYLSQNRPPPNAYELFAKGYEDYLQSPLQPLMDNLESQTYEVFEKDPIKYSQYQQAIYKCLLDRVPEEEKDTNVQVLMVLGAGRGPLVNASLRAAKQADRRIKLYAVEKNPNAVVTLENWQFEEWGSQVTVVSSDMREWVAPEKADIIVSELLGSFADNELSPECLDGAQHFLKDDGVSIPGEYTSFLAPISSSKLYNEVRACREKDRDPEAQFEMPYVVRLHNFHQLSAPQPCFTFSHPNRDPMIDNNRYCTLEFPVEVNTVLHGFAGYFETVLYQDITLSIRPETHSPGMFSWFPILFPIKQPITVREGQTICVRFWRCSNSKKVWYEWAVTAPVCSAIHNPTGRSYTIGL
PRMT5-MEP50, sequence (Q9BQA1 whole entry partner): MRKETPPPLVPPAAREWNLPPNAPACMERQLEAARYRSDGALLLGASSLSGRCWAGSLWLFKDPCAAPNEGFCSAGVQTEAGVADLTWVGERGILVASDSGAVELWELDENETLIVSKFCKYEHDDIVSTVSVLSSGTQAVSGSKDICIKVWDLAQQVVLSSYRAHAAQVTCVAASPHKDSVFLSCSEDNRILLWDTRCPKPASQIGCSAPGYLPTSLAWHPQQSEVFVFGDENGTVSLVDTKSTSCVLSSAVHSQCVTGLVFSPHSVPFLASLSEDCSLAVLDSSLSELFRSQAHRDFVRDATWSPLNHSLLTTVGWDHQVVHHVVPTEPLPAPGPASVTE

Structure (SMILES) | IC50 (METTL3/METTL14) [µM] | IC50 (PRMT5-MEP50) [µM]
Nc1ncnc2c1c(Cl)cn2-c1cccc(COc2ccc3ccc(N4CCCC4)nc3c2)c1 [Compound I-63] | > 1 | –
CC1COc2ccc(OCc3cncc(-n4cc(-c5ccn(C)n5)c5c(N)ncnc54)c3)cc2N1 (stereo not shown) [Compound I-171] | > 1 | > 1
CCc1cc(NCCOC)c2c(F)cc(OCc3cncc(-n4cc(C5CCCO5)c5c(N)ncnc54)n3)cc2n1 (stereo not shown) [Compound I-172] | > 1 | > 1
CN(CCS(C)(=O)=O)c1ccc2ccc(OCc3cncc(-n4cc(-c5ccn(C)n5)c5c(N)ncnc54)c3)cc2n1 [Compound I-175] | 0.1 to 1 | > 1
Cn1ccc(-c2cn(-c3cncc(COc4ccc(C(=O)N5CCNCC5)c(N)c4)c3)c3ncnc(N)c23)n1 [Compound I-176] | 0.1 to 1 | > 1
CN(C)C(=O)c1ccc(OCc2cncc(-n3cc(-c4ccn(C)n4)c4c(N)ncnc43)c2)cc1N [Compound I-177] | > 1 | > 1
Cn1ccc(-c2cn(-c3cncc(COc4ccc(C(=O)N5CCOCC5)c(N)c4)c3)c3ncnc(N)c23)n1 [Compound I-178] | > 1 | > 1
CN(CC1CC1)C(=O)c1ccc(OCc2cncc(-n3cc(-c4ccn(C)n4)c4c(N)ncnc43)c2)cc1N [Compound I-179] | > 1 | > 1
Cn1ccc(-c2cn(-c3cncc(COc4cc(F)ccc4C(=O)NC4CCOCC4)c3)c3ncnc(N)c23)n1 [Compound I-181] | > 1 | > 1
Cn1ccc(-c2cn(-c3cncc(COc4ccc5cnc(N6CCC6)nc5c4)c3)c3ncnc(N)c23)n1 [Compound I-183] | > 1 | > 1
COc1ccccc1-c1cn(-c2cncc(COc3ccc4ccc(N5CCC5)nc4c3)c2)c2ncncc12 [Compound I-184] | > 1 | > 1
Cn1ccc(-c2cn(-c3cncc(COc4ccc(C(=O)N5CCC(F)(F)CC5)c(N)c4)c3)c3ncnc(N)c23)n1 [Compound I-186] | > 1 | > 1
Cn1ccc(-c2cn(-c3cncc(COc4ccc(C(=O)NC5CCOCC5)c(N)c4)c3)c3ncnc(N)c23)n1 [Compound I-187] | 0.1 to 1 | > 1
Cn1ccc(-c2cn(-c3cncc(COc4ccc5ccc(N6CCC6=O)nc5c4)c3)c3ncnc(N)c23)n1 [Compound I-188] | > 1 | > 1
Cn1ccc(-c2cn(-c3cncc(COc4ccc5ccc(C6CCOCC6)nc5c4)c3)c3ncnc(N)c23)n1 [Compound I-189] | 0.1 to 1 | > 1
COCCN(C)C(=O)c1ccc(OCc2cncc(-n3cc(-c4ccn(C)n4)c4c(N)ncnc43)c2)cc1N [Compound I-191] | > 1 | > 1
Cn1ccc(-c2cn(-c3cncc(COc4ccc5ccc(N6CC7(CCC7)C6)nc5c4)c3)c3ncnc(N)c23)n1 [Compound I-194] | 0.1 to 1 | > 1
Cn1ccc(-c2cn(-c3cncc(COc4ccc5ccc(N6CCCC6=O)nc5c4)c3)c3ncnc(N)c23)n1 [Compound I-195] | > 1 | > 1
Cn1ccc(-c2cn(-c3cncc(COc4ccc5ccc(N6CCC(F)(F)CC6)nc5c4)c3)c3ncnc(N)c23)n1 [Compound I-197] | 0.1 to 1 | > 1

Now from value to molecule:

IC50 (METTL3/METTL14) [µM] | IC50 (PRMT5-MEP50) [µM] | Structure (SMILES)
0.1 to 1 | > 1 | Nc1ncnc2c1ccn2-c1csc(COc2ccc3ccc(N4CCCC4)nc3c2)n1 [Compound I-54]
< 0.01 | > 1 | CC(C)c1cc(N)c2ccc(OCc3cncc(-c4c[nH]c5c(N)ncnc45)c3)cc2n1 [Compound I-101]
0.01 to 0.1 | > 1 | Cc1cc(NCCN(C)CCCCc2ccccc2)c2ccc(OCc3cncc(-n4ccc5c(N)ncnc54)c3)cc2n1 [Compound I-102]
0.01 to 0.1 | > 1 | Cc1cc(NCCN(C)CCCCCc2ccccc2)c2ccc(OCc3cncc(-n4ccc5c(N)ncnc54)c3)cc2n1 [Compound I-103]
0.1 to 1 | > 1 | CCc1cc(=O)c2ccc(OCc3cncc(-n4cc(C5CCCC5)c5c(N)ncnc54)c3)cc2[nH]1 [Compound I-105]
0.01 to 0.1 | – | CC(C)c1cc(N)c2ccc(CCc3cncc(-n4ccc5c(N)ncnc54)c3)cc2n1 [Compound I-129]
0.01 to 0.1 | – | CC(C)c1cc(N)c2ccc(CCc3cncc(-n4cc(C5CCCC5)c5c(N)ncnc54)c3)cc2n1 [Compound I-130]
0.01 to 0.1 | – | CCc1cc(NCCOC)c2ccc(OCc3cncc(-n4cc([C@H]5CCCO5)c5c(N)ncnc54)c3)cc2n1 [Compound I-133]
0.01 to 0.1 | – | CCNc1ccc2ccc(CCc3cncc(-n4cc([C@H]5CCCO5)c5c(N)ncnc54)n3)cc2n1 [Compound I-139]
< 0.01 | – | CCNc1ccc2ccc(CCc3cncc(-n4cc([C@@H]5CCCO5)c5c(N)ncnc54)n3)cc2n1 [Compound I-140]
0.01 to 0.1 | – | CCc1cc(N2CCNCC2)c2ccc(OCc3cncc(-n4cc([C@H]5CCCO5)c5c(N)ncnc54)c3)cc2n1 [Compound I-148]
0.01 to 0.1 | – | CCc1cc(NCCOC)c2ncc(OCc3cncc(-n4cc([C@H]5CCCO5)c5c(N)ncnc54)c3)cc2n1 [Compound I-151]
0.01 to 0.1 | – | CCNc1ccc2ccc(CCc3cncc(-n4cc(C5CCCO5)c5c(N)ncnc54)c3)cc2n1 (stereo not shown) [Compound I-157]
0.01 to 0.1 | – | Nc1ncnc2c1c([C@H]1CCCO1)cn2-c1cncc(COc2ccc3ccc(N4CCC4)nc3c2)n1 [Compound I-160]
< 0.01 | – | Nc1ncnc2c1c([C@@H]1CCCO1)cn2-c1cncc(COc2ccc3ccc(N4CCC4)nc3c2)n1 [Compound I-161]
0.01 to 0.1 | – | CCc1cc(NCCOC)c2c(F)cc(OCc3cncc(-n4cc([C@H]5CCCO5)c5c(N)ncnc54)c3)cc2n1 [Compound I-163]
0.01 to 0.1 | – | CCc1cc(NCCOC)c2c(F)cc(OCc3cncc(-n4cc([C@@H]5CCCO5)c5c(N)ncnc54)c3)cc2n1 [Compound I-164]
0.01 to 0.1 | – | CCc1cc(NC(C)=O)c2ccc(OCc3cncc(-n4cc([C@@H]5CCCO5)c5c(N)ncnc54)c3)cc2n1 [Compound I-165]
0.1 to 1 | – | Nc1cc(OCc2cncc(-n3cc([C@@H]4CCCO4)c4c(N)ncnc43)c2)ccc1C(=O)N1CCNCC1 [Compound I-166]
0.01 to 0.1 | – | CCc1cc(C)c2ccc(OCc3cncc(-n4cc([C@@H]5CCCO5)c5c(N)ncnc54)c3)cc2n1 [Compound I-168]
0.1 to 1 | > 1 | C[S+]([O-])c1cn(-c2cncc(COc3ccc4ccc(N5CCC5)nc4c3)c2)c2ncnc(N)c12 (stereo not shown) [Compound I-173]
0.01 to 0.1 | > 1 | CCc1cc(N(C)C2CC2)c2ccc(OCc3cncc(-n4cc([C@@H]5CCCO5)c5c(N)ncnc54)n3)cc2n1 [Compound I-174]
0.01 to 0.1 | > 1 | CCc1ccc2ccc(OCc3cncc(-n4cc(-c5ccn(C)n5)c5c(N)ncnc54)c3)cc2n1 [Compound I-180]
< 0.01 | – | Nc1ncnc2c1c(CO)cn2-c1cncc(COc2ccc3ccc(N4CCC4)nc3c2)c1 [Compound I-182]
< 0.01 | > 1 | Nc1ncnc2c(-c3cncc(COc4ccc5ccc(N6CCC6)nc5c4)c3)c[nH]c12 [Compound I-190]
0.01 to 0.1 | 0.1 to 1 | Cn1ccc(-c2cn(-c3cncc(COc4ccc5ccc(N6CCOCC6)nc5c4)c3)c3ncnc(N)c23)n1 [Compound I-196]
